Results: US20260262643A1, “HERBICIDAL BENZOXAZINES” (FMC CORPORATION, priority 2022, published 2026)

Experiments:
[1] = system: barnyardgrass; assay: Test B flooded paddy test; assay type: in vivo, Echinochloa crus-galli; settings: 250 g ai/ha, Flood, 13 days, 0 to 100 scale (0 no effect, 100 complete control)
How it was run: (§1)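 Each species was raised to the 2-leaf stage. At treatment, each pot received floodwater 3 cm deep, with the chemical delivered into the water. Greenhouse holding followed for 13 days, then percent control was estimated visually versus untreated pots.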

[2] = system: foxtail, giant; assay: Test A preemergence; assay type: in vivo, Setaria faberi; settings: 0 to 100 scale
How it was run: (§2)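 Visual injury ratings on a 0–100 scale (100 = complete control) versus untreated controls, taken 10 days after treatment in greenhouse. Preemergence: directed soil spray onto seeded loam/sand. Postemergence: foliar application at one- to two-leaf stage, plants 2–10 cm. Formulation: non-phytotoxic solvent plus surfactant.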

[3] = system: ryegrass, Italian; assay: Test A preemergence; assay type: in vivo, Lolium multiflorum; settings: 0 to 100 scale
How it was run: as §2

[4] = system: ragweed; assay: Test A postemergence; assay type: in vivo, Ambrosia artemisiifolia; settings: postemergence, 10 days
How it was run: as §2

[5] = system: galium; assay: Test A postemergence; assay type: in vivo, Galium aparine; settings: postemergence, 10 days
How it was run: as §2

[6] = system: soybean; assay: Test A preemergence; assay type: in vivo, Glycine max; settings: 0 to 100 scale
How it was run: as §2

[7] = system: pigweed, palmer; assay: Test A postemergence; assay type: in vivo, Amaranthus palmeri; settings: postemergence, 10 days
How it was run: as §2

[8] = system: oat, wild; assay: Test A postemergence; assay type: in vivo, Avena fatua; settings: postemergence, 10 days
How it was run: as §2

[9] = system: blackgrass; assay: Test A postemergence; assay type: in vivo, Alopecurus myosuroides; settings: postemergence, 10 days
How it was run: as §2

[10] = system: horseweed; assay: Test A postemergence; assay type: in vivo, Erigeron canadensis; settings: postemergence, 10 days
How it was run: as §2

[11] = system: barnyardgrass; assay: Test A postemergence; assay type: in vivo, Echinochloa crusgalli; settings: postemergence, 10 days
How it was run: as §2

[12] = system: oat, wild; assay: Test A preemergence; assay type: in vivo, Avena fatua; settings: 0 to 100 scale
How it was run: as §2

[13] = system: ducksalad; assay: Test B flooded paddy test; assay type: in vivo, Heteranthera limosa; settings: 250 g ai/ha, Flood, 13 days, 0 to 100 scale (0 no effect, 100 complete control)
How it was run: as §1

[14] = system: kochia; assay: Test A preemergence; assay type: in vivo, Bassia scoparia; settings: 0 to 100 scale
How it was run: as §2

[15] = system: blackgrass; assay: Test A preemergence; assay type: in vivo, Alopecurus myosuroides; settings: 0 to 100 scale
How it was run: as §2

[16] = system: kochia; assay: Test A postemergence; assay type: in vivo, Bassia scoparia; settings: postemergence, 10 days
How it was run: as §2

[17] = system: rice; assay: Test B flooded paddy test; assay type: in vivo, Oryza sativa; settings: 250 g ai/ha, Flood, 13 days, 0 to 100 scale (0 no effect, 100 complete control)
How it was run: as §1

[18] = system: ragweed; assay: Test A preemergence; assay type: in vivo, Ambrosia artemisiifolia; settings: 0 to 100 scale
How it was run: as §2

[19] = system: foxtail, giant; assay: Test A postemergence; assay type: in vivo, Setaria faberi; settings: postemergence, 10 days
How it was run: as §2

[20] = system: corn; assay: Test A preemergence; assay type: in vivo, Zea mays; settings: 0 to 100 scale
How it was run: as §2

[21] = system: soybean; assay: Test A postemergence; assay type: in vivo, Glycine max; settings: postemergence, 10 days
How it was run: as §2

[22] = system: wheat; assay: Test A postemergence; assay type: in vivo, Triticum aestivum; settings: postemergence, 10 days
How it was run: as §2

[23] = system: corn; assay: Test A postemergence; assay type: in vivo, Zea mays; settings: postemergence, 10 days
How it was run: as §2

[24] = system: wheat; assay: Test A preemergence; assay type: in vivo, Triticum aestivum; settings: 0 to 100 scale
How it was run: as §2

[25] = system: pigweed, palmer; assay: Test A preemergence; assay type: in vivo, Amaranthus palmeri; settings: 0 to 100 scale
How it was run: as §2

[26] = system: ryegrass, Italian; assay: Test A postemergence; assay type: in vivo, Lolium multiflorum; settings: postemergence, 10 days
How it was run: as §2

[27] = system: sedge, umbrella; assay: Test B flooded paddy test; assay type: in vivo, Cyperus difformis; settings: 250 g ai/ha, Flood, 13 days, 0 to 100 scale (0 no effect, 100 complete control)
How it was run: as §1

[28] = system: barnyardgrass; assay: Test A preemergence; assay type: in vivo, Echinochloa crusgalli; settings: visual injury after 10 days, 0 to 100 scale, 0 is no effect, 100 is complete control
How it was run: as §2

[29] = 500 g ai/ha, visual injury after 10 days, 0 is no effect, 100 is complete control
[30] = 125 g ai/ha, 0 to 100 scale, 0 no effect, 100 complete control
[31] = 500 g ai/ha, visual injury, 0 to 100 scale (0 no effect, 100 complete control)

Which results are given for `CC(C)c1ncn(-c2ccc(OC(F)F)c(C(=O)N3C[C@H](C)Oc4c(Cl)cccc43)c2)n1` [Compound 143]?
Plant response rating, Barnyardgrass [1]: 40; Plant response rating, Foxtail, Giant ([2]; 125 g ai/ha): 100; Plant response rating, Foxtail, Giant [2, 29]: 100; Plant response rating, Ryegrass, Italian ([3]; 125 g ai/ha): 80; Plant response rating, Ryegrass, Italian [3, 29]: 90; Ragweed plant response rating [4, 30]: 40; Plant response rating, Ragweed [4, 31]: 70; Galium plant response rating [5, 30]: 100; Plant response rating, Galium [5, 31]: 100; Plant response rating, Soybean ([6]; 125 g ai/ha): 100; Plant response rating, Soybean [6, 29]: 100; Pigweed, Palmer plant response rating [7, 30]: 60; Plant response rating, Pigweed, Palmer [7, 31]: 80; Oat, Wild plant response rating [8, 30]: 10; Plant response rating, Oat, Wild [8, 31]: 70; Blackgrass plant response rating [9, 30]: 80; Plant response rating, Blackgrass [9, 31]: 90; Horseweed plant response rating [10, 30]: 20; Plant response rating, Horseweed [10, 31]: 50; Barnyardgrass plant response rating [11, 30]: 50; Plant response rating, Barnyardgrass [11, 31]: 90; Plant response rating, Oat, Wild ([12]; 125 g ai/ha): 60; Plant response rating, Oat, Wild [12, 29]: 90; Plant response rating, Ducksalad [13]: 65; Plant response rating, Kochia ([14]; 125 g ai/ha): 80; Plant response rating, Kochia [14, 29]: 100; Plant response rating, Blackgrass ([15]; 125 g ai/ha): 40; Plant response rating, Blackgrass [15, 29]: 70; Kochia plant response rating [16, 30]: 90; Plant response rating, Kochia [16, 31]: 90; Plant response rating, Rice [17]: 0; Plant response rating, Ragweed ([18]; 125 g ai/ha): 30; Plant response rating, Ragweed [18, 29]: 90; Foxtail, Giant plant response rating [19, 30]: 90; Plant response rating, Foxtail, Giant [19, 31]: 90; Plant response rating, Corn ([20]; 125 g ai/ha): 10; Plant response rating, Corn [20, 29]: 40; Soybean plant response rating [21, 30]: 100; Plant response rating, Soybean [21, 31]: 100; Wheat plant response rating [22, 30]: 30; Plant response rating, Wheat [22, 31]: 40; Corn plant response rating [23, 30]: 90; Plant response rating, Corn [23, 31]: 90; Plant response rating, Wheat ([24]; 125 g ai/ha): 90; Plant response rating, Wheat [24, 29]: 50; Plant response rating, Pigweed, Palmer ([25]; 125 g ai/ha): 100; Plant response rating, Pigweed, Palmer [25, 29]: 100; Ryegrass, Italian plant response rating [26, 30]: 50; Plant response rating, Ryegrass, Italian [26, 31]: 80; Plant response rating, Sedge, Umbrella [27]: 98; Plant response rating, Barnyardgrass ([28]; 125 g ai/ha): 90; Plant response rating, Barnyardgrass ([28]; 500 g ai/ha): 100
